How the values were obtained:
Assay in all cases: scanMAX Kinase assay panel
Assay type in all cases: binding
Conditions in all cases: read-out: % control
[1] = biological target: RAF1 (Homo sapiens (Human), UniProt P04049)
Method in brief: (§1)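 Each compound is run against the kinase on the scanMAX selectivity panel. Its signal is then expressed relative to a DMSO negative control (100%) and a positive control compound (0%).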

[2] = biological target: EPHA8 (Homo sapiens (Human), UniProt P29322)
Method in brief: as §1

[3] = biological target: NDR1 (Homo sapiens (Human), UniProt Q15208)
Method in brief: as §1

[4] = biological target: RSK1(Kin.Dom.1-N-terminal) (Homo sapiens (Human), UniProt Q15418)
Method in brief: as §1

[5] = biological target: PDGFRB (Homo sapiens (Human), UniProt P09619)
Method in brief: as §1

[6] = biological target: FRK (Homo sapiens (Human), UniProt P42685)
Method in brief: as §1

[7] = biological target: ASK1 (Homo sapiens (Human), UniProt Q99683)
Method in brief: as §1

[8] = biological target: YSK4 (Homo sapiens (Human), UniProt Q56UN5)
Method in brief: as §1

[9] = biological target: HIPK2 (Homo sapiens (Human), UniProt Q9H2X6)
Method in brief: as §1

[10] = biological target: EGFR(S752-I759del) (Homo sapiens (Human), UniProt P00533, DEL752-759)
Method in brief: as §1

[11] = biological target: CAMKK2 (Homo sapiens (Human), UniProt Q96RR4)
Method in brief: as §1

[12] = biological target: FLT3-autoinhibited (Homo sapiens (Human), UniProt P36888)
Method in brief: as §1

[13] = biological target: TRKB (Homo sapiens (Human), UniProt Q16620)
Method in brief: as §1

[14] = biological target: MAPKAPK2 (Homo sapiens (Human), UniProt P49137)
Method in brief: as §1

[15] = biological target: RET(V804M) (Homo sapiens (Human), UniProt P07949, V804M)
Method in brief: as §1

[16] = biological target: RSK2(Kin.Dom.1-N-terminal) (Homo sapiens (Human), UniProt P51812)
Method in brief: as §1

[17] = biological target: PDPK1 (Homo sapiens (Human), UniProt O15530)
Method in brief: as §1

[18] = biological target: MERTK (Homo sapiens (Human), UniProt Q12866)
Method in brief: as §1

[19] = biological target: CDK4-cyclinD3 (Homo sapiens (Human), UniProt P11802)
Method in brief: as §1

[20] = biological target: PIP5K1C (Homo sapiens (Human), UniProt O60331)
Method in brief: as §1

[21] = biological target: NEK1 (Homo sapiens (Human), UniProt Q96PY6)
Method in brief: as §1

[22] = biological target: INSRR (Homo sapiens (Human), UniProt P14616)
Method in brief: as §1

[23] = biological target: MAP3K15 (Homo sapiens (Human), UniProt Q6ZN16)
Method in brief: as §1

[24] = biological target: PLK2 (Homo sapiens (Human), UniProt Q9NYY3)
Method in brief: as §1

[25] = biological target: MARK2 (Homo sapiens (Human), UniProt Q7KZI7)
Method in brief: as §1

[26] = biological target: PIK3CA(E545A) (Homo sapiens (Human), UniProt P42336, E545A)
Method in brief: as §1

[27] = biological target: SGK (Homo sapiens (Human), UniProt O00141)
Method in brief: as §1

[28] = biological target: CDK3 (Homo sapiens (Human), UniProt Q00526)
Method in brief: as §1

[29] = biological target: ACVR2A (Homo sapiens (Human), UniProt P27037)
Method in brief: as §1

[30] = biological target: MKNK1 (Homo sapiens (Human), UniProt Q9BUB5)
Method in brief: as §1

[31] = biological target: HIPK4 (Homo sapiens (Human), UniProt Q8NE63)
Method in brief: as §1

[32] = biological target: CAMK2D (Homo sapiens (Human), UniProt Q13557)
Method in brief: as §1

[33] = biological target: CDC2L2 (Homo sapiens (Human), UniProt Q9UQ88)
Method in brief: as §1

[34] = biological target: SLK (Homo sapiens (Human), UniProt Q9H2G2)
Method in brief: as §1

[35] = biological target: QSK (Homo sapiens (Human), UniProt Q9Y2K2)
Method in brief: as §1

[36] = biological target: YANK2 (Homo sapiens (Human), UniProt Q9NY57)
Method in brief: as §1

[37] = biological target: DAPK3 (Homo sapiens (Human), UniProt O43293)
Method in brief: as §1

[38] = biological target: TNNI3K (Homo sapiens (Human), UniProt Q59H18)
Method in brief: as §1

[39] = biological target: FYN (Homo sapiens (Human), UniProt P06241)
Method in brief: as §1

CDK4-cyclinD3, sequence (P11802 whole entry): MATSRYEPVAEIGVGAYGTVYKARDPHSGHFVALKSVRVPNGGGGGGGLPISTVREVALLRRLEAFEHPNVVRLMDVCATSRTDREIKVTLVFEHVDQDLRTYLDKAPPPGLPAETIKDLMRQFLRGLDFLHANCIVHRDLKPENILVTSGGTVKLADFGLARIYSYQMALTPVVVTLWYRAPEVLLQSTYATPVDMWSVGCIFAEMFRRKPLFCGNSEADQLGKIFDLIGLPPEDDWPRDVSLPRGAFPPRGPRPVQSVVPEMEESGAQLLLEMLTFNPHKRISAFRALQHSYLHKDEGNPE
CDK4-cyclinD3, sequence (P30281 whole entry partner): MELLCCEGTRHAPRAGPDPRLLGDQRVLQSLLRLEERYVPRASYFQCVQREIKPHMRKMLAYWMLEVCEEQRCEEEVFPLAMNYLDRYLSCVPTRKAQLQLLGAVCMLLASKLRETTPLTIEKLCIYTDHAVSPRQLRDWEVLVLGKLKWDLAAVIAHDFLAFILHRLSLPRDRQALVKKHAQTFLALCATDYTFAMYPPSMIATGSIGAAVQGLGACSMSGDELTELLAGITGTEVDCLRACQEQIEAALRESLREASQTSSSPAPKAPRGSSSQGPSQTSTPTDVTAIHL
ASK1, sequence (Q99683 whole entry): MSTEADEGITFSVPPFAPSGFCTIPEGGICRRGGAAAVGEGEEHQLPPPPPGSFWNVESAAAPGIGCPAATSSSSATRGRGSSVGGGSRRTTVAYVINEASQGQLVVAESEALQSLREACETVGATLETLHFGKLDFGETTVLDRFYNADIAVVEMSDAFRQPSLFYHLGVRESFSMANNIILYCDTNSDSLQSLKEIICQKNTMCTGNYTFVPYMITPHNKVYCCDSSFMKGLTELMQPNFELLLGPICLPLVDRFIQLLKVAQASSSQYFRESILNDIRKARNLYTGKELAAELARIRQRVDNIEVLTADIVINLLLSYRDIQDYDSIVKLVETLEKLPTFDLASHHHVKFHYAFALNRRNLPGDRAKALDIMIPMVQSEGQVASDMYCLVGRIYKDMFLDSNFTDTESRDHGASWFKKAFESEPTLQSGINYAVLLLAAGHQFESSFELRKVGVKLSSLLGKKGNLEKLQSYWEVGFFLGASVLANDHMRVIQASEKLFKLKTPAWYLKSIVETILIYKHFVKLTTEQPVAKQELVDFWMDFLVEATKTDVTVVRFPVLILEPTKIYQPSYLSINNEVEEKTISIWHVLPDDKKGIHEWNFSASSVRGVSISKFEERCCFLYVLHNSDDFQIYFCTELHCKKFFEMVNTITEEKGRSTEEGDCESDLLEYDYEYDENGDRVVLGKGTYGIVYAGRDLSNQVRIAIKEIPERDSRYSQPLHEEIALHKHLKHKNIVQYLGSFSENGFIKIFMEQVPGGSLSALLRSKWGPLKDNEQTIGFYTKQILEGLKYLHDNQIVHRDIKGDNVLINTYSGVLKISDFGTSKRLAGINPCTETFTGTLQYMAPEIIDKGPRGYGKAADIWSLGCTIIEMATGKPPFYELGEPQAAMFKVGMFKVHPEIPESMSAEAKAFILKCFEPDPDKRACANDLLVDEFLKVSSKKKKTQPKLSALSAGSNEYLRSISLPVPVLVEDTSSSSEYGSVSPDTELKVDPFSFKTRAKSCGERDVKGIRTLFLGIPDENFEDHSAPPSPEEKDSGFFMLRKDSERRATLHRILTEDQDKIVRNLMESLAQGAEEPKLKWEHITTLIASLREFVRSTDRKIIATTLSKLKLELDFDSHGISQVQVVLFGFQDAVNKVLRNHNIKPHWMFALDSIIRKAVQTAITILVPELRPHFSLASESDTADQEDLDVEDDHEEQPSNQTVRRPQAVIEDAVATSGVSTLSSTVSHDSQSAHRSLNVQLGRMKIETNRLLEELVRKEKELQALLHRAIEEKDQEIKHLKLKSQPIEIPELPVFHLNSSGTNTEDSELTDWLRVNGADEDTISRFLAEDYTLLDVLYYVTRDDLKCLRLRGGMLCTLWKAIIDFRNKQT
FLT3-autoinhibited, sequence (P36888 564-993 limits assumed): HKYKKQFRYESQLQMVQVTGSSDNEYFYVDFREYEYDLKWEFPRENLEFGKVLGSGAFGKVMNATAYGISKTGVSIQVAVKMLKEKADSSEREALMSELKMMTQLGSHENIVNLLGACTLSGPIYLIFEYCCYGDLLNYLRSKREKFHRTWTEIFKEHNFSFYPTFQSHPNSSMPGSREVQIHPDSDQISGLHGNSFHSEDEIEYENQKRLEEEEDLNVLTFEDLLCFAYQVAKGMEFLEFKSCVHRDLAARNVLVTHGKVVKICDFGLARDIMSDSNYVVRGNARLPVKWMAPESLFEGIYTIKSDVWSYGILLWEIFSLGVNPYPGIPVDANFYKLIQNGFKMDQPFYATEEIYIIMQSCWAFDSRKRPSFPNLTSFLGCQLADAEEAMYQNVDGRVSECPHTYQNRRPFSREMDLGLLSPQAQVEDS
HIPK4, sequence (Q8NE63 whole entry): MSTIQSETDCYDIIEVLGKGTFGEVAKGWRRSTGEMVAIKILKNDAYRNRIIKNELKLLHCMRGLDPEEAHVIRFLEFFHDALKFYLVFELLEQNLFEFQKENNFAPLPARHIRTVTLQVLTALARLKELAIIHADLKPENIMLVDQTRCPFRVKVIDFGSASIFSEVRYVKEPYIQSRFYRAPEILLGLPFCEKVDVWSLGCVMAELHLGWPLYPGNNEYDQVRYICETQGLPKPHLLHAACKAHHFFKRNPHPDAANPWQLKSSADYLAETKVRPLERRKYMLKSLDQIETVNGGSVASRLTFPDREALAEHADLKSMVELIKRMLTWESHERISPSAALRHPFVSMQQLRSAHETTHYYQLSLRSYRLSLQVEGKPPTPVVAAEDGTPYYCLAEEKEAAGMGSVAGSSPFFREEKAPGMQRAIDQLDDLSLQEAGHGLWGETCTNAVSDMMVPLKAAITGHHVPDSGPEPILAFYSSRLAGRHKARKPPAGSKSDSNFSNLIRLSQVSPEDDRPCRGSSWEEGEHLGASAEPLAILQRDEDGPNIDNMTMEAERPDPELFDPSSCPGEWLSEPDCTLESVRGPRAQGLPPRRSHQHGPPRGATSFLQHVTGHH
PDGFRB, sequence (P09619 33-1106): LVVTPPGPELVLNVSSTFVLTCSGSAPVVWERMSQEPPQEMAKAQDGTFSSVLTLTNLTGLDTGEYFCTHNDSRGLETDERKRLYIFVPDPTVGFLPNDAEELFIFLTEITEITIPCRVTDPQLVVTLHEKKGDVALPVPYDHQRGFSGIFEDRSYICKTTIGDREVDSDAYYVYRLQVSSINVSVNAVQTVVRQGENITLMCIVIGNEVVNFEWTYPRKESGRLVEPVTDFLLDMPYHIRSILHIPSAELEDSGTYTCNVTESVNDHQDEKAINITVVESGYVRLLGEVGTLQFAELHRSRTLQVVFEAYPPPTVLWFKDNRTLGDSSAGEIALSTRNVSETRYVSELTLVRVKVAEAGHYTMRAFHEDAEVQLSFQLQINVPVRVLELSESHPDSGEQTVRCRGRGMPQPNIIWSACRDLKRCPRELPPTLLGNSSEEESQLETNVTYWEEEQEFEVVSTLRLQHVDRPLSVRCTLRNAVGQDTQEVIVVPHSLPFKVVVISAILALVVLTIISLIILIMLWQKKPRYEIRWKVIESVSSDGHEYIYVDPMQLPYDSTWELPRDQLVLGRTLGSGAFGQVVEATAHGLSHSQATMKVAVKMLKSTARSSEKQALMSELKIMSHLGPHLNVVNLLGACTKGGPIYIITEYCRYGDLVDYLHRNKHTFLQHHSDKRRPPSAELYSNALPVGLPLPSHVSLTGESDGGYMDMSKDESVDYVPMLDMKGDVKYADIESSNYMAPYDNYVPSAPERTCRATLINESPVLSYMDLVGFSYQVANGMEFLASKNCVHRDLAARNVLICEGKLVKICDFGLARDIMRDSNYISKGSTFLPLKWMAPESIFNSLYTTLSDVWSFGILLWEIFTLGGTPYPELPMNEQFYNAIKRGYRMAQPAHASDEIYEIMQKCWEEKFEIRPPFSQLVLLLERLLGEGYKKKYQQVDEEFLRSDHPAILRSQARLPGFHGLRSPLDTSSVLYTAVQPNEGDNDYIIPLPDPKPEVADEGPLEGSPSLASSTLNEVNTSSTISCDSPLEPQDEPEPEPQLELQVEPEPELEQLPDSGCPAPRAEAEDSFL
EPHA8, sequence (P29322 28-1005): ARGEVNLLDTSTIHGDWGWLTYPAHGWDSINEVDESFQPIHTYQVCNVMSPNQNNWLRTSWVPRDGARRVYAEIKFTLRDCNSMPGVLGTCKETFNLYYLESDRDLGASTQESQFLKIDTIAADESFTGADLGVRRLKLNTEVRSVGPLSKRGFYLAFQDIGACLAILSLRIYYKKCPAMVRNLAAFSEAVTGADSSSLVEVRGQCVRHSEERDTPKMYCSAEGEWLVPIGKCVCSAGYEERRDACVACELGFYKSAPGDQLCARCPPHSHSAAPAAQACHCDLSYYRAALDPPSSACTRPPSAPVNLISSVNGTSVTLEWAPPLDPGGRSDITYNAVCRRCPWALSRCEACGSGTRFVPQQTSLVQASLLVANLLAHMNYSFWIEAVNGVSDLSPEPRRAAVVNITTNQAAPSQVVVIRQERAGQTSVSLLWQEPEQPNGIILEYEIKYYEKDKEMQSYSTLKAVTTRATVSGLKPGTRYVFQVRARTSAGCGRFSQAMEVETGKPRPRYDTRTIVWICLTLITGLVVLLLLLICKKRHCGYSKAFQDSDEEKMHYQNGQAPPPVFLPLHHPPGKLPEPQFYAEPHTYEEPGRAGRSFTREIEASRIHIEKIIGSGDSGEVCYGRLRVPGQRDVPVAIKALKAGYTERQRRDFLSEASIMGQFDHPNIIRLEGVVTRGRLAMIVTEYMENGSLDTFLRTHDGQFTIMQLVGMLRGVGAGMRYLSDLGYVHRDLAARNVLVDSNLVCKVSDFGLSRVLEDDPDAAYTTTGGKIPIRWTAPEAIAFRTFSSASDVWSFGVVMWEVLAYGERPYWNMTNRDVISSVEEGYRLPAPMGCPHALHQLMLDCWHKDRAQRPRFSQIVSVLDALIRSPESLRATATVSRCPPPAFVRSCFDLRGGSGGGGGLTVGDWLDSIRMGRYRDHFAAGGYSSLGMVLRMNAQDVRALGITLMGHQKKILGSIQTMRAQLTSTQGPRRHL

Structure (SMILES)	remaining binding at 1 µM [1] [%]	remaining binding at 1 µM [2] [%]	remaining binding at 1 µM [3] [%]	remaining binding at 1 µM [4] [%]	remaining binding at 1 µM [5] [%]	remaining binding at 1 µM [6] [%]	remaining binding at 1 µM [7] [%]	remaining binding at 1 µM [8] [%]	remaining binding at 1 µM [9] [%]	remaining binding at 1 µM [10] [%]	remaining binding at 1 µM [11] [%]	remaining binding at 1 µM [12] [%]	remaining binding at 1 µM [13] [%]	remaining binding at 1 µM [14] [%]	remaining binding at 1 µM [15] [%]	remaining binding at 1 µM [16] [%]	remaining binding at 1 µM [17] [%]	remaining binding at 1 µM [18] [%]	remaining binding at 1 µM [19] [%]	remaining binding at 1 µM [20] [%]	also measured
CCNc1cc(Nc2ccc(C(=O)N3CCC(N4CCOCC4)CC3)cc2OC)nc2[nH]cc(C#N)c12 [Example 18, 4-(ethylamino)-6-((2-methoxy-4-(4-morpholinopiperidine-1-carbonyl)phenyl)amino)-1H-pyrrolo[2,3-b]pyridine-3-carbonitrile]	97	85	69	73	76	94	79	6.7	68	99	52	82	100	21	99	78	99	100	100	67	remaining binding at 1 µM [21]: 100%; remaining binding at 1 µM [22]: 24%; remaining binding at 1 µM [23]: 53%; remaining binding at 1 µM [24]: 81%; remaining binding at 1 µM [25]: 89%; remaining binding at 1 µM [26]: 100%; remaining binding at 1 µM [27]: 64%; remaining binding at 1 µM [28]: 97%; remaining binding at 1 µM [29]: 100%; remaining binding at 1 µM [30]: 93%; remaining binding at 1 µM [31]: 100%; remaining binding at 1 µM [32]: 82%; remaining binding at 1 µM [33]: 86%; remaining binding at 1 µM [34]: 95%; remaining binding at 1 µM [35]: 92%; remaining binding at 1 µM [36]: 100%; remaining binding at 1 µM [37]: 14%; remaining binding at 1 µM [38]: 91%; remaining binding at 1 µM [39]: 78%
CCNc1cc(Nc2ccc(C(=O)N3CCC(N4CCOCC4)CC3)cc2OC)nc2[nH]cc(C(F)(F)F)c12 [Example 57, (4-((4-(ethylamino)-3-(trifluoromethyl)-1H-pyrrolo[2,3-b]pyridin-6-yl)amino)-3-methoxyphenyl) (4-morpholinopiperidin-1-yl)methanone]	72	100	89	76	92	92	77	100	100	75	49	92	100	51	95	96	86	91	100	69	remaining binding at 1 µM [21]: 81%; remaining binding at 1 µM [22]: 60%; remaining binding at 1 µM [23]: 100%; remaining binding at 1 µM [24]: 90%; remaining binding at 1 µM [25]: 93%; remaining binding at 1 µM [26]: 77%; remaining binding at 1 µM [27]: 100%; remaining binding at 1 µM [28]: 94%; remaining binding at 1 µM [29]: 99%; remaining binding at 1 µM [30]: 100%; remaining binding at 1 µM [31]: 86%; remaining binding at 1 µM [32]: 47%; remaining binding at 1 µM [33]: 88%; remaining binding at 1 µM [34]: 80%; remaining binding at 1 µM [35]: 87%; remaining binding at 1 µM [36]: 94%; remaining binding at 1 µM [37]: 86%; remaining binding at 1 µM [38]: 100%; remaining binding at 1 µM [39]: 87%

From patent publication US11117892B2, “Pyrrolo-pyridine derivative compound, method for preparing same, and pharmaceutical composition containing same as active ingredient for prevention or treatment of protein kinase-related diseases” (DAEGU-GYEONGBUK MEDICAL INNOVATION FOUNDATION, priority 2017, dated 2021)
